From the NIST ThermoML archive (doi:10.1021/je200787v)
Where “and” joins values, the source holds several entries; their conditions need not be identical. Equal entries are not always repeated. Numbers after ± are expanded uncertainties.

Columns and labels:
[1] = Liquid
[2] = xn = mol fraction of the nth substance listed; details: Liquid; for viscosity: Falling or rolling sphere viscometry; for mass density: Vibrating tube method

## CCCCCCCCCCCCCCCCCC [octadecane]
[1]; 323.1 K
  mass density: 757 ± 4 kg/m3 [middle of 4 runs]
[1]; 323.3 K
  mass density: 756 ± 4 kg/m3 and 757 ± 4 kg/m3
[1]; 372.8 K
  mass density: 734 ± 5 kg/m3 [middle of 6 runs]
[1]; 422.5 K
  mass density: 703 ± 5 kg/m3 and 704 ± 5 kg/m3
[1]; 422.6 K
  mass density: 700 ± 5 kg/m3 [middle of 6 runs]

## CCCCCCCCCCCCCCCCCC [octadecane] + CC
[2]; 323.1 K, x2 = 0.27
  viscosity: 1.59 ± 0.16 mPa·s
  mass density: 732 ± 2 kg/m3
[2]; 323.1 K, x2 = 0.415
  viscosity: 1.09 ± 0.11 mPa·s
  mass density: 715 ± 2 kg/m3
[2]; 323.1 K, x2 = 0.789
  viscosity: 0.31 ± 0.03 mPa·s
  mass density: 606 ± 2 kg/m3
[2]; 323.1 K, x2 = 0.844
  viscosity: 0.23 ± 0.02 mPa·s
  mass density: 572 ± 2 kg/m3
[2]; 323.3 K, x2 = 0.546
  viscosity: 0.81 ± 0.08 mPa·s
  mass density: 691 ± 2 kg/m3
[2]; 323.3 K, x2 = 0.654
  viscosity: 0.55 ± 0.06 mPa·s
  mass density: 662 ± 2 kg/m3
[2]; 372.8 K, x2 = 0.127
  viscosity: 0.87 ± 0.09 mPa·s
  mass density: 719 ± 2 kg/m3
[2]; 372.8 K, x2 = 0.298
  viscosity: 0.7 ± 0.07 mPa·s
  mass density: 703 ± 2 kg/m3
[2]; 372.8 K, x2 = 0.372
  viscosity: 0.62 ± 0.06 mPa·s
  mass density: 692 ± 2 kg/m3
[2]; 372.8 K, x2 = 0.474
  viscosity: 0.52 ± 0.05 mPa·s
  mass density: 676 ± 2 kg/m3
[2]; 372.8 K, x2 = 0.536
  viscosity: 0.46 ± 0.05 mPa·s
  mass density: 664 ± 2 kg/m3
[2]; 372.8 K, x2 = 0.599
  viscosity: 0.39 ± 0.04 mPa·s
  mass density: 648 ± 2 kg/m3
[2]; 372.8 K, x2 = 0.666
  viscosity: 0.32 ± 0.03 mPa·s
  mass density: 628 ± 2 kg/m3
[2]; 372.8 K, x2 = 0.701
  viscosity: 0.29 ± 0.03 mPa·s
  mass density: 614 ± 2 kg/m3
[2]; 422.5 K, x2 = 0.547
  viscosity: 0.29 ± 0.03 mPa·s
  mass density: 624 ± 2 kg/m3
[2]; 422.5 K, x2 = 0.588
  viscosity: 0.27 ± 0.03 mPa·s
  mass density: 613 ± 2 kg/m3
[2]; 422.6 K, x2 = 0.096
  viscosity: 0.55 ± 0.06 mPa·s
  mass density: 688 ± 2 kg/m3
[2]; 422.6 K, x2 = 0.194
  viscosity: 0.49 ± 0.05 mPa·s
  mass density: 679 ± 2 kg/m3
[2]; 422.6 K, x2 = 0.296
  viscosity: 0.43 ± 0.04 mPa·s
  mass density: 667 ± 2 kg/m3
[2]; 422.6 K, x2 = 0.365
  viscosity: 0.4 ± 0.04 mPa·s
  mass density: 659 ± 2 kg/m3
[2]; 422.6 K, x2 = 0.427
  viscosity: 0.37 ± 0.04 mPa·s
  mass density: 648 ± 2 kg/m3
[2]; 422.6 K, x2 = 0.477
  viscosity: 0.33 ± 0.03 mPa·s
  mass density: 640 ± 2 kg/m3
